In patent publication US20050112573A1, “Method of detecting toxic substance” (priority 2001, published 2005):

Tested on: yeast genes (level of expressed mRNA)
Experiment: DNA chip analysis of expressed mRNA of yeast genes after 2 h culture with a toxic chemical substance
Format: cell-based, Saccharomyces cerevisiae S288C
Experimental: Yeast (Saccharomyces cerevtisiae S288C (α SUC2mal mel gap2 CUP1)) were cultured at 25° C. on YPD medium (yeast extract 1%, polypepton 2%, glucose 2%). One of toxic chemical substances was added to the cell at logarithmic growth phase, and the cell was further cultured for two hours. Cell was cultured without any chemical substance in the same condition, and was used as control. Concentrations of the chemical substances were defined to inhibit the growth of the yeast but not lead to death.
After the completion of cultivation, the culture was centrifuged to collect the cells. To the cells, sodium acetate buffer (50 mM sodium acetate, 10 mM EDTA, 1% SDS) was added, and the mixture was shaken at 65° C. for five minutes, followed by returning to room temperature, and obtaining the supernatant, which procedure was repeated two times. To the supernatant, ½ amount of a solution of phenol/chloroform was added, and the mixture was centrifuged to give a supernatant, which was added with an equal amount of chloroform, and the mixture was centrifuged to give a supernatant. To the supernatant, an equal amount of isopropanol containing 0.3 M sodium acetate was added, and the mixture was allowed to stand at room temperature for 30 minutes, after which the mixture was centrifuged to give a sediment of the whole RNAs. Seventy % ethanol was added to the sediment, and the mixture was again centrifuged to give a sediment, which was then dried and dissolved in water. mRNA was isolated from the whole RNAs as followings. In view of the fact that a poly A chain is attached to the 3′ terminus of mRNA, a polynucleotide having a poly T structure which was immobilized on the surface of latex beads was used to trap the mRNA, and then the mRNA was washed and eluted with spine column (Oligotex-dT30<Super>mRNA Purification Kit, Takara). Reverse transcription of the mRNA was conducted with a reverse transcriptase (Super Script II Reverse Transcriptase; catalogue No. 18064-014, GibcoBRL) using fluorescence-labeled nucleotides to give cDNAs that were introduced with Cy3-dUTP or Cy5-dUTP during the reverse transcription.
The labeled cDNAs were dissolved in TE buffer (10 mM Tris-HCl/1 mM EDTA, pH8.0), and the solution was dropped on the DNA chip containing the whole genes of yeast (DNA Chip Research Inc. Japan) so that the cDNAs were hybridized on the DNA chip at 65° C. for over 12 hours. The fluoresces intensity of the DNA chip was read with a scanner, and the ratio relative to the fluorescence intensity resulting from the absence of chemical substance was estimated as the following, which is shown in Tables 1 to 9: [formula]
In the Tables, “Intensity” indicated in the rightmost column is a value of the level of expressed mRNA of each gene in control cells as divided by the average level of the expressions of the whole genes.

With Na2As [(1)] the “The level of expressed mRNA in the presence of chemical substance/” value (yeast gene YAL053W, ratio to control without chemical) was 0.9, the “The level of expressed mRNA in the presence of chemical substance/The level of expressed mRNA in the absence of chemical substance” value (yeast gene YAR010C) was 0.8 and the “The level of expressed mRNA in the presence of chemical substance/The level of expressed mRNA in the absence of chemical substance” value (yeast gene YBL005W-A) was 1.0. The “The level of expressed mRNA in the presence of chemical substance/The level of expressed mRNA in the absence of chemical substance” value (yeast gene YBL041W) was 1.2, the “The level of expressed mRNA in the presence of chemical substance/The level of expressed mRNA in the absence of chemical substance” value (yeast gene YBL043W) was 1.2 and the “The level of expressed mRNA in the presence of chemical substance/” value (yeast gene YBL048W, ratio to control without chemical substance, 2 h culture) was 2.0. For the same substance, the “The level of expressed mRNA in the presence of chemical substance/The level of expressed mRNA in the absence of chemical substance” value (yeast gene YBL078C) was 2.3, the “The level of expressed mRNA in the presence of chemical substance/” value (yeast gene YBL107C, ratio to control without chemical substance, 2 h culture) was 1.4 and the “The level of expressed mRNA in the presence of chemical substance/in the absence of chemical substance” value (yeast gene YBR036C) was 0.8. The “The level of expressed mRNA in the presence of chemical substance/The level of expressed mRNA in the absence of chemical substance” value (yeast gene YBR214W) was 0.9, the “The level of expressed mRNA in the presence of chemical substance/in the absence of chemical substance” value (yeast gene YBR298C) was 1.1 and the “The level of expressed mRNA in the presence of chemical substance/The level of expressed mRNA in the absence of chemical substance” value (yeast gene YCL020W) was 1.1. For the same substance, the “The level of expressed mRNA in the presence of chemical substance/The level of expressed mRNA in the absence of chemical substance” value (yeast gene YCL027W) was 0.7, the “The level of expressed mRNA in the presence of chemical substance/The level of expressed mRNA in the absence of chemical substance” value (yeast gene YCR004C) was 1.7 and the “The level of expressed mRNA in the presence of chemical substance/The level of expressed mRNA in the absence of chemical substance” value (yeast gene YCR071C) was 1.1. The “The level of expressed mRNA in the presence of chemical substance/The level of expressed mRNA in the absence of chemical substance” value (yeast gene YCR088W) was 0.9, the “The level of expressed mRNA in the presence of chemical substance/The level of expressed mRNA in the absence of chemical substance” value (yeast gene YDL008W) was 1.1 and the “The level of expressed mRNA in the presence of chemical substance/” value (yeast gene YDL072C, ratio to control without chemical) was 1.3. For the same substance, the “The level of expressed mRNA in the presence of chemical substance/in the absence of chemical substance” value (yeast gene YDL078C) was 0.7, the “The level of expressed mRNA in the presence of chemical substance/” value (yeast gene YDL204W, ratio to control without chemical) was 1.4 and the “The level of expressed mRNA in the presence of chemical substance/in the absence of chemical substance” value (yeast gene YDL215C) was 1.0. The “The level of expressed mRNA in the presence of chemical substance/” value (yeast gene YDL222C, ratio to control without chemical) was 0.9, the “The level of expressed mRNA in the presence of chemical substance/The level of expressed mRNA in the absence of chemical substance” value (yeast gene YDL238C) was 0.7 and the “The level of expressed mRNA in the presence of chemical substance/The level of expressed mRNA in the absence of chemical substance” value (yeast gene YDR055W) was 1.7. For the same substance, the “The level of expressed mRNA in the presence of chemical substance/The level of expressed mRNA in the absence of chemical substance” value (yeast gene YDR084C) was 0.9, the “The level of expressed mRNA in the presence of chemical substance/The level of expressed mRNA in the absence of chemical substance” value (yeast gene YDR085C) was 1.9 and the “The level of expressed mRNA in the presence of chemical substance/The level of expressed mRNA in the absence of chemical substance” value (yeast gene YDR104C) was 0.8. The “The level of expressed mRNA in the presence of chemical substance/The level of expressed mRNA in the absence of chemical substance” value (yeast gene YDR115W) was 1.3, the “The level of expressed mRNA in the presence of chemical substance/The level of expressed mRNA in the absence of chemical substance” value (yeast gene YDR259C) was 1.4 and the “The level of expressed mRNA in the presence of chemical substance/in the absence of chemical substance” value (yeast gene YDR297W) was 1.5. The “The level of expressed mRNA in the presence of chemical substance/The level of expressed mRNA in the absence of chemical substance” value (yeast gene YDR315C) was 1.0, the “The level of expressed mRNA in the presence of chemical substance/” value (yeast gene YDR330W, ratio to control without chemical substance, 2 h culture) was 0.8 and the “The level of expressed mRNA in the presence of chemical substance/The level of expressed mRNA in the absence of chemical substance” value (yeast gene YDR358W) was 0.7. For the same substance, the “The level of expressed mRNA in the presence of chemical substance/in the absence of chemical substance” value (yeast gene YDR387C) was 0.8, the “The level of expressed mRNA in the presence of chemical substance/The level of expressed mRNA in the absence of chemical substance” value (yeast gene YDR388W) was 0.7 and the “The level of expressed mRNA in the presence of chemical substance/” value (yeast gene YDR411C, ratio to control without chemical substance, 2 h culture) was 0.9. For the same substance, the “The level of expressed mRNA in the presence of chemical substance/The level of expressed mRNA in the absence of chemical substance” value (yeast gene YDR432W) was 0.5, the “The level of expressed mRNA in the presence of chemical substance/The level of expressed mRNA in the absence of chemical substance” value (yeast gene YDR481C) was 0.7 and the “The level of expressed mRNA in the presence of chemical substance/The level of expressed mRNA in the absence of chemical substance” value (yeast gene YDR510W) was 1.0. The “The level of expressed mRNA in the presence of chemical substance/” value (yeast gene YDR511W, ratio to control without chemical substance, 2 h culture) was 1.3, the “The level of expressed mRNA in the presence of chemical substance/” value (yeast gene YDR545W, ratio to control without chemical substance, 2 h culture) was 0.6 and the “The level of expressed mRNA in the presence of chemical substance/” value (yeast gene YEL001C, ratio to control without chemical) was 1.0. The “The level of expressed mRNA in the presence of chemical substance/The level of expressed mRNA in the absence of chemical substance” value (yeast gene YEL042W) was 0.6, the “The level of expressed mRNA in the presence of chemical substance/The level of expressed mRNA in the absence of chemical substance” value (yeast gene YEL066W) was 2.0 and the “The level of expressed mRNA in the presence of chemical substance/” value (yeast gene YER004W, ratio to control without chemical substance, 2 h culture) was 1.0. The “The level of expressed mRNA in the presence of chemical substance/” value (yeast gene YER035W, ratio to control without chemical substance, 2 h culture) was 1.4, the “The level of expressed mRNA in the presence of chemical substance/The level of expressed mRNA in the absence of chemical substance” value (yeast gene YER039C) was 1.0 and the “The level of expressed mRNA in the presence of chemical substance/” value (yeast gene YER079W, ratio to control without chemical substance, 2 h culture) was 1.1. The “The level of expressed mRNA in the presence of chemical substance/” value (yeast gene YER106W, ratio to control without chemical) was 1.3, the “The level of expressed mRNA in the presence of chemical substance/The level of expressed mRNA in the absence of chemical substance” value (yeast gene YER107C) was 0.9 and the “The level of expressed mRNA in the presence of chemical substance/The level of expressed mRNA in the absence of chemical substance” value (yeast gene YER130C) was 0.9. For the same substance, the “The level of expressed mRNA in the presence of chemical substance/” value (yeast gene YER158C, ratio to control without chemical substance, 2 h culture) was 1.2, the “The level of expressed mRNA in the presence of chemical substance/” value (yeast gene YER163C, ratio to control without chemical substance, 2 h culture) was 1.1 and the “The level of expressed mRNA in the presence of chemical substance/” value (yeast gene YER175C, ratio to control without chemical substance, 2 h culture) was 0.9. The “The level of expressed mRNA in the presence of chemical substance/” value (yeast gene YFL006W, ratio to control without chemical substance, 2 h culture) was 0.8.
